Values of other authors, collected in patent US20110165699A1 (priority 2009, published 2011).

For CCc1c2c(nc3ccc(O)cc13)-c1cc3c(c(=O)n1C2)COC(=O)[C@]3(O)CC [SN-38, 7-ethyl-10-hydroxy-camptotheen], the “inter-patient variability, CV in AUCs” value (Sasaki, Jpn. J. Cancer 1995) is listed as 38.91% and the “intra- and inter-individual pharmacokinetic variability” value (has been reported) is listed as “more than 40 fold”.
